According to patent US10227344B2, “CK2 inhibitors, compositions and methods thereof” (Polaris Pharmaceuticals, Inc., priority 2016, dated 2019):

Key:
Format in all cases: cell-based
[1] = system: PC3; test: Cancer cell panel, cell viability (resazurin): Prostate, PC3; settings: 72 hours, labelled drug combined with Example 3
Procedure: (§1) Cells were plated in 96-well plates and treated for 72 hours with a serially diluted CK2 inhibitor or anti-cancer drug or their combination. The suspension cell lines were treated right after plating, while the adherent cells were allowed to attach overnight prior to the start of the treatment.
(§2) Cell viability was determined by adding resazurin to cell cultures and measuring fluorescence with a plate reader. Relative cell viability was calculated by dividing the cell viability signal from a test sample by that of a non-treated control. […] Bliss Independence and Highest Single Agent models were used to determine if there is synergy, additivity or antagonism between the CK2 inhibitor and an anti-cancer drug.

[2] = system: LnCap; test: Cancer cell panel, cell viability (resazurin): Prostate, LnCap; settings: 72 hours, labelled drug combined with Example 3
[3] = system: SKOV-3; test: Cancer cell panel, cell viability (resazurin): Ovarian, SKOV-3; settings: SKOV-3 (Ovarian), 72 hours; labelled drug combined with Example 3
[4] = system: A2780; test: Cancer cell panel, cell viability (resazurin): Ovarian, A2780; settings: 72 hours, labelled drug combined with Example 3
[5] = system: Caov-3; test: Cancer cell panel, cell viability (resazurin): Ovarian, Caov-3; settings: Caov-3 (Ovarian), 72 hours; labelled drug combined with Example 3
Procedure: as §1, §2

[6] = system: Mia-Paca-2; test: Cancer cell panel, cell viability (resazurin): Pancreatic, Mia-Paca-2; settings: Mia-Paca-2 (Pancreatic), 72 hours; labelled drug combined with Example 3
Procedure: as §1, §2

[7] = system: Panc-1; test: Cancer cell panel, cell viability (resazurin): Pancreatic, Panc-1; settings: Panc-1 (Pancreatic), 72 hours; labelled drug combined with Example 3
[8] = system: BxPC3; test: Cancer cell panel, cell viability (resazurin): Pancreatic, BxPC3; settings: 72 hours, labelled drug combined with Example 3
Procedure: as §1, §2

[9] = system: HCT116; test: Cancer cell panel, cell viability (resazurin): Colon, HCT116; settings: 72 hours, labelled drug combined with Example 3
Procedure: as §1, §2

[10] = system: Colo205; test: Cancer cell panel, cell viability (resazurin): Colon, Colo205; settings: 72 hours, labelled drug combined with Example 3
[11] = system: LoVo; test: Cancer cell panel, cell viability (resazurin): Colon, LoVo; settings: 72 hours, labelled drug combined with Example 3
[12] = system: DLD-1; test: Cancer cell panel, cell viability (resazurin): Colon, DLD-1; settings: DLD-1 (Colon), 72 hours; labelled drug combined with Example 3
[13] = system: H1299; test: Cancer cell panel, cell viability (resazurin): NSCLC, H1299; settings: 72 hours, labelled drug combined with Example 3
Procedure: as §1, §2

[14] = system: A549; test: Cancer cell panel, cell viability (resazurin): NSCLC, A549; settings: 72 hours, labelled drug combined with Example 3
Procedure: as §1, §2

[15] = system: H460; test: Cancer cell panel, cell viability (resazurin): NSCLC, H460; settings: 72 hours, labelled drug combined with Example 3
[16] = system: H1975; test: Cancer cell panel, cell viability (resazurin): NSCLC, H1975; settings: 72 hours, labelled drug combined with Example 3
[17] = system: H23; test: Cancer cell panel, cell viability (resazurin): NSCLC, H23; settings: 72 hours, labelled drug combined with Example 3
[18] = system: H2122; test: Cancer cell panel, cell viability (resazurin): NSCLC, H2122; settings: 72 hours, labelled drug combined with Example 3
[19] = system: SkBr-3; test: Cancer cell panel, cell viability (resazurin): Breast, SkBr-3; settings: SkBr-3 (Breast), 72 hours; labelled drug combined with Example 3
Procedure: as §1, §2

[20] = system: MDA-MB-453; test: Cancer cell panel, cell viability (resazurin): Breast, MDA-MB-453; settings: MDA-MB-453 (Breast), 72 hours; labelled drug combined with Example 3
Procedure: as §1, §2

[21] = system: MDA-MB-231; test: Cancer cell panel, cell viability (resazurin): Breast, MDA-MB-231; settings: MDA-MB-231 (Breast), 72 hours; labelled drug combined with Example 3
[22] = system: MDA-MB-157; test: Cancer cell panel, cell viability (resazurin): Breast, MDA-MB-157; settings: MDA-MB-157 (Breast), 72 hours; labelled drug combined with Example 3
[23] = system: BT-20; test: Cancer cell panel, cell viability (resazurin): Breast, BT-20; settings: BT-20 (Breast), 72 hours; labelled drug combined with Example 3
Procedure: as §1, §2

[24] = system: ZR-75-1; test: Cancer cell panel, cell viability (resazurin): Breast, ZR-75-1; settings: ZR-75-1 (Breast), 72 hours; labelled drug combined with Example 3
[25] = system: T47D; test: Cancer cell panel, cell viability (resazurin): Breast, T47D; settings: 72 hours, labelled drug combined with Example 3
[26] = system: 786-O; test: Cancer cell panel, cell viability (resazurin): Renal, 786-O; settings: 786-O (Renal), 72 hours; labelled drug combined with Example 3
Procedure: as §1, §2

[27] = system: ACHN; test: Cancer cell panel, cell viability (resazurin): Renal, ACHN; settings: 72 hours, labelled drug combined with Example 3
Procedure: as §1, §2

[28] = system: Caki-1; test: Cancer cell panel, cell viability (resazurin): Renal, Caki-1; settings: Caki-1 (Renal), 72 hours; labelled drug combined with Example 3
[29] = system: Caki-2; test: Cancer cell panel, cell viability (resazurin): Renal, Caki-2; settings: Caki-2 (Renal), 72 hours; labelled drug combined with Example 3
[30] = system: A375; test: Cancer cell panel, cell viability (resazurin): Melanoma, A375; settings: 72 hours, labelled drug combined with Example 3
Procedure: as §1, §2

[31] = system: SK-MEL-3; test: Cancer cell panel, cell viability (resazurin): Melanoma, SK-MEL-3; settings: SK-MEL-3 (Melanoma), 72 hours; labelled drug combined with Example 3
Procedure: as §1, §2

[32] = system: SK-MEL-24; test: Cancer cell panel, cell viability (resazurin): Melanoma, SK-MEL-24; settings: SK-MEL-24 (Melanoma), 72 hours; labelled drug combined with Example 3
[33] = system: WM-115; test: Cancer cell panel, cell viability (resazurin): Melanoma, WM-115; settings: WM-115 (Melanoma), 72 hours; labelled drug combined with Example 3
[34] = system: MeWO; test: Cancer cell panel, cell viability (resazurin): Melanoma, MeWO; settings: 72 hours, labelled drug combined with Example 3
[35] = system: U266; test: Cancer cell panel, cell viability (resazurin): multiple myeloma, U266; settings: 72 hours, labelled drug combined with Example 3
[36] = system: U87MG; test: Cancer cell panel, cell viability (resazurin): Glioblastoma, U87MG; settings: 72 hours, labelled drug combined with Example 3
Procedure: as §1, §2

[37] = system: Raji; test: Cancer cell panel, cell viability (resazurin): Burkitt's Lymphoma, Raji; settings: 72 hours, labelled drug combined with Example 3
Procedure: as §1, §2

[38] = system: Daudi; test: Cancer cell panel, cell viability (resazurin): Burkitt's Lymphoma, Daudi; settings: 72 hours, labelled drug combined with Example 3
[39] = system: NAMALWA; test: Cancer cell panel, cell viability (resazurin): Burkitt's Lymphoma, NAMALWA; settings: 72 hours, labelled drug combined with Example 3
[40] = system: HL60; test: Cancer cell panel, cell viability (resazurin): Leukemia, HL60; settings: 72 hours, labelled drug combined with Example 3
[41] = system: EOL-1; test: Cancer cell panel, cell viability (resazurin): Leukemia, EOL-1; settings: EOL-1 (Leukemia), 72 hours; labelled drug combined with Example 3
[42] = system: MOLT4; test: Cancer cell panel, cell viability (resazurin): Leukemia, MOLT4; settings: 72 hours, labelled drug combined with Example 3

N.N.[Cl][Pt][Cl] [Cisplatin, cisplatin]
synergy, additivity or antagonism of the combination of Example 3 with the anti-cancer drug [1]: + (Additive relative to each agent alone (CI = 0.9-1 by Bliss Independence Model and <0.9 by Highest Single Agent Model))
synergy, additivity or antagonism of the combination of Example 3 with the anti-cancer drug [2]: + + (Slight synergy relative to each agent alone (CI = 0.75-0.9 by Bliss Independence Model))
synergy, additivity or antagonism of the combination of Example 3 with the anti-cancer drug [3]: + (Additive relative to each agent alone (CI = 0.9-1 by Bliss Independence Model and <0.9 by Highest Single Agent Model))
synergy, additivity or antagonism of the combination of Example 3 with the anti-cancer drug [4]: + + + + (Strong synergy relative to each agent alone (CI < 0.4 by Bliss Independence Model))
synergy, additivity or antagonism of the combination of Example 3 with the anti-cancer drug [5]: + (Additive relative to each agent alone (CI = 0.9-1 by Bliss Independence Model and <0.9 by Highest Single Agent Model))
synergy, additivity or antagonism of the combination of Example 3 with the anti-cancer drug [6]: + (Additive relative to each agent alone (CI = 0.9-1 by Bliss Independence Model and <0.9 by Highest Single Agent Model))
synergy, additivity or antagonism of the combination of Example 3 with the anti-cancer drug [7]: + (Additive relative to each agent alone (CI = 0.9-1 by Bliss Independence Model and <0.9 by Highest Single Agent Model))
synergy, additivity or antagonism of the combination of Example 3 with the anti-cancer drug [8]: + (Additive relative to each agent alone (CI = 0.9-1 by Bliss Independence Model and <0.9 by Highest Single Agent Model))
synergy, additivity or antagonism of the combination of Example 3 with the anti-cancer drug [9]: + (Additive relative to each agent alone (CI = 0.9-1 by Bliss Independence Model and <0.9 by Highest Single Agent Model))
synergy, additivity or antagonism of the combination of Example 3 with the anti-cancer drug [10]: + + (Slight synergy relative to each agent alone (CI = 0.75-0.9 by Bliss Independence Model))
synergy, additivity or antagonism of the combination of Example 3 with the anti-cancer drug [11]: + + (Slight synergy relative to each agent alone (CI = 0.75-0.9 by Bliss Independence Model))
synergy, additivity or antagonism of the combination of Example 3 with the anti-cancer drug [12]: + (Additive relative to each agent alone (CI = 0.9-1 by Bliss Independence Model and <0.9 by Highest Single Agent Model))
synergy, additivity or antagonism of the combination of Example 3 with the anti-cancer drug [13]: + (Additive relative to each agent alone (CI = 0.9-1 by Bliss Independence Model and <0.9 by Highest Single Agent Model))
synergy, additivity or antagonism of the combination of Example 3 with the anti-cancer drug [14]: + + + + (Strong synergy relative to each agent alone (CI < 0.4 by Bliss Independence Model))
synergy, additivity or antagonism of the combination of Example 3 with the anti-cancer drug [15]: + + (Slight synergy relative to each agent alone (CI = 0.75-0.9 by Bliss Independence Model))
synergy, additivity or antagonism of the combination of Example 3 with the anti-cancer drug [16]: + (Additive relative to each agent alone (CI = 0.9-1 by Bliss Independence Model and <0.9 by Highest Single Agent Model))
synergy, additivity or antagonism of the combination of Example 3 with the anti-cancer drug [17]: + + + (Synergy relative to each agent alone (CI = 0.4-0.74 by Bliss Independence Model))
synergy, additivity or antagonism of the combination of Example 3 with the anti-cancer drug [18]: + + (Slight synergy relative to each agent alone (CI = 0.75-0.9 by Bliss Independence Model))
synergy, additivity or antagonism of the combination of Example 3 with the anti-cancer drug [19]: + + (Slight synergy relative to each agent alone (CI = 0.75-0.9 by Bliss Independence Model))
synergy, additivity or antagonism of the combination of Example 3 with the anti-cancer drug [20]: + + (Slight synergy relative to each agent alone (CI = 0.75-0.9 by Bliss Independence Model))
synergy, additivity or antagonism of the combination of Example 3 with the anti-cancer drug [21]: + (Additive relative to each agent alone (CI = 0.9-1 by Bliss Independence Model and <0.9 by Highest Single Agent Model))
synergy, additivity or antagonism of the combination of Example 3 with the anti-cancer drug [22]: + + + (Synergy relative to each agent alone (CI = 0.4-0.74 by Bliss Independence Model))
synergy, additivity or antagonism of the combination of Example 3 with the anti-cancer drug [23]: + + (Slight synergy relative to each agent alone (CI = 0.75-0.9 by Bliss Independence Model))
synergy, additivity or antagonism of the combination of Example 3 with the anti-cancer drug [24]: + (Additive relative to each agent alone (CI = 0.9-1 by Bliss Independence Model and <0.9 by Highest Single Agent Model))
synergy, additivity or antagonism of the combination of Example 3 with the anti-cancer drug [25]: + (Additive relative to each agent alone (CI = 0.9-1 by Bliss Independence Model and <0.9 by Highest Single Agent Model))
synergy, additivity or antagonism of the combination of Example 3 with the anti-cancer drug [26]: + + (Slight synergy relative to each agent alone (CI = 0.75-0.9 by Bliss Independence Model))
synergy, additivity or antagonism of the combination of Example 3 with the anti-cancer drug [27]: + (Additive relative to each agent alone (CI = 0.9-1 by Bliss Independence Model and <0.9 by Highest Single Agent Model))
synergy, additivity or antagonism of the combination of Example 3 with the anti-cancer drug [28]: + (Additive relative to each agent alone (CI = 0.9-1 by Bliss Independence Model and <0.9 by Highest Single Agent Model))
synergy, additivity or antagonism of the combination of Example 3 with the anti-cancer drug [29]: + (Additive relative to each agent alone (CI = 0.9-1 by Bliss Independence Model and <0.9 by Highest Single Agent Model))
synergy, additivity or antagonism of the combination of Example 3 with the anti-cancer drug [30]: + + (Slight synergy relative to each agent alone (CI = 0.75-0.9 by Bliss Independence Model))
synergy, additivity or antagonism of the combination of Example 3 with the anti-cancer drug [31]: + (Additive relative to each agent alone (CI = 0.9-1 by Bliss Independence Model and <0.9 by Highest Single Agent Model))
synergy, additivity or antagonism of the combination of Example 3 with the anti-cancer drug [32]: + + (Slight synergy relative to each agent alone (CI = 0.75-0.9 by Bliss Independence Model))
synergy, additivity or antagonism of the combination of Example 3 with the anti-cancer drug [33]: + + (Slight synergy relative to each agent alone (CI = 0.75-0.9 by Bliss Independence Model))
synergy, additivity or antagonism of the combination of Example 3 with the anti-cancer drug [34]: + (Additive relative to each agent alone (CI = 0.9-1 by Bliss Independence Model and <0.9 by Highest Single Agent Model))
synergy, additivity or antagonism of the combination of Example 3 with the anti-cancer drug [35]: + (Additive relative to each agent alone (CI = 0.9-1 by Bliss Independence Model and <0.9 by Highest Single Agent Model))
synergy, additivity or antagonism of the combination of Example 3 with the anti-cancer drug [36]: + (Additive relative to each agent alone (CI = 0.9-1 by Bliss Independence Model and <0.9 by Highest Single Agent Model))
synergy, additivity or antagonism of the combination of Example 3 with the anti-cancer drug [37]: + + (Slight synergy relative to each agent alone (CI = 0.75-0.9 by Bliss Independence Model))
synergy, additivity or antagonism of the combination of Example 3 with the anti-cancer drug [38]: + (Additive relative to each agent alone (CI = 0.9-1 by Bliss Independence Model and <0.9 by Highest Single Agent Model))
synergy, additivity or antagonism of the combination of Example 3 with the anti-cancer drug [39]: + (Additive relative to each agent alone (CI = 0.9-1 by Bliss Independence Model and <0.9 by Highest Single Agent Model))
synergy, additivity or antagonism of the combination of Example 3 with the anti-cancer drug [40]: + (Additive relative to each agent alone (CI = 0.9-1 by Bliss Independence Model and <0.9 by Highest Single Agent Model))
synergy, additivity or antagonism of the combination of Example 3 with the anti-cancer drug [41]: + + (Slight synergy relative to each agent alone (CI = 0.75-0.9 by Bliss Independence Model))
synergy, additivity or antagonism of the combination of Example 3 with the anti-cancer drug [42]: + + (Slight synergy relative to each agent alone (CI = 0.75-0.9 by Bliss Independence Model))
